{
  "source": "patent US20230118142A1",
  "about": "“AGENTS FOR USE IN THE TREATMENT OF TISSUE DAMAGE” (UCL BUSINESS LTD, priority 2020, published 2023)",
  "key": {"[1]": {"target": "T1, CRP (Homo sapiens, UniProt P02741)", "T1 sequence (P02741 19-224)": "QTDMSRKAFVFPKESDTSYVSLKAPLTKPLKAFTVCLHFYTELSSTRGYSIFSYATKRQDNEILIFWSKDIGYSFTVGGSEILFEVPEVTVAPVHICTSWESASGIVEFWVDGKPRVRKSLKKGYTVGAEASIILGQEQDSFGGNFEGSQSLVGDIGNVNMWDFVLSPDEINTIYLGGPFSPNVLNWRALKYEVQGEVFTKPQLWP", "experiment": "Immobilised phosphocholine plate assay (125I-CRP binding)", "set-up": "The final concentrations were 0.73 μM native pentameric CRP; from tissue", "settings": "read-out: IC50 for inhibition of 125I-CRP binding to immobilised phosphocholine", "procedure": "(i) Phosphocholine was immobilised on Greiner NHS-activated microtitre plates by incubation with 4-aminophenyl-1-phosphocholine. Remaining active sites were blocked by incubation with 4% w/v BSA in TC buffer (TCB).\n(ii) Human CRP at 1 μg/ml in TC buffer was spiked with ^125I-labelled CRP to provide 10^6 cpm/ml.\n(iii) Compounds were prepared from up to 10 mM stock solutions by dilution in TC buffer to 0.5 mM (labelled S1). Serial dilutions were prepared by diluting 100 μl ligand solution with 200 μl TC buffer (S2-S10). A ligand-free control was also used (SO, TC only).\n(iv) A 100 μl volume of CRP solution was incubated with 10 μl of each compound (S1-S10, SO) for 1 h at room temperature without stirring, to provide final ligand concentrations across the range 45.5 μM-6.9 nM with a ligand:CRP monomer molar ratio of 1151-0.06. In some cases, single fixed ligand concentrations were also assayed in comparison with PC.\n(v) A 100 μl volume of each CRP-ligand mixture was added to the plate wells and incubated for 2 h at room temperature. Solutions were then discarded and the plates washed with TCB buffer. Bound radioactivity was measured (1 min counts) using a gamma counter (Perkin Elmer Wizard 2470).\n(vi) Data were plotted with Sigmaplot v14 software using the 4-parameter logistic curve y=min+(max−min)/(1+(x/EC50)^−Hill slope) to calculate IC50."}, "[2]": {"target": "T1, CRP", "experiment": "Stability of pre-formed CRP/ligand complexes in vitro (mouse plasma, whole blood, shear forces, dialysis)", "set-up": "from tissue", "procedure": "Pre-formed complexes of CRP/Pk-023 (with 5-fold molar excess of ligand over CRP pentamer), or CRP alone, were co-incubated, unstirred, in TC buffer (control), fresh mouse heparinised plasma or fresh heparinised whole mouse blood at 37° C. for up to 3 hours. CRP concentrations in plasma were then measured by Roche immunoassay. […] On addition of EDTA to dissociate CRP ligand binding, Roche CRP concentrations in all CRP/Pk-023 samples recovered to ˜70% of control values showing that the protein was still present and immunoreactive.\nTo determine whether shear forces might have an effect on stability, pre-formed CRP/Pk-023 complexes prepared with either a 2.5- or 5-fold molar excess of ligand were added to heparinised mouse plasma and stirred rapidly at room temperature for 3 h.\nCRP/Pk-023 complexes formed at 5-fold ligand excess were stable during exhaustive dialysis against TC buffer for up to 96 h at room temperature, as shown by the Roche CRP assay values. After 30 h, ˜8% of the complex had dissociated, with a further 2.5% dissociation at 96 h. Similarly, CRP/Pk-023 complexes pre-formed in serum were stable during dialysis against TC buffer for 24 h at room temperature with shear forces produced by a magnetic stir bar inserted into the dialysis tubing. ^125I-CRP was included to correct for dilution account for any effects of dilution."}, "[3]": {"target": "T1, CRP", "experiment": "In vivo clearance of preformed CRP/ligand complexes in mice", "set-up": "from tissue", "settings": "complexes formed in vitro, injected intravenously", "procedure": "(i) CRP at 1 mg/ml in azide-free TC buffer (containing, in some experiments, ˜10^6 cpm/ml of ^125I-CRP) was incubated with a 5-fold molar excess of ligand. A control (ligand-free) sample was also prepared. Cross linking of CRP was confirmed by SEC in TC buffer of a small sample of complex.\n(ii) Two groups of eight wild-type C57BL/6 mice (male; 23-27 weeks old) were used.\nThe complex or control (200 μl, 200 μg CRP) was injected into the tail vein of each mouse. A single timed collection of blood was taken from the tail vain of each mouse; a second terminal sample was also collected. This yielded 4 samples each at 30, 60, 120 and 180 min for control and treated groups.\n(iii) Blood samples were weighed and CRP measured in the Roche assay and, in some cases by electroimmunoassay (4, 13). ^125I-CRP was measured by gamma counting (Perkin Elmer Wizard; protocol #1).\nComplexes were prepared in vitro using ^125I-labelled CRP and an excess of ligand, and the mixture was then injected intravenously into mice. Clearance of CRP was monitored by counting of the ^125I-CRP tracer and stable CRP-ligand complexes were detected by lack of CRP detection in the Roche assay of the plasma samples. The formation of CRP/ligand complexes was confirmed by size exclusion chromatography before use in each in vivo experiment."}},
  "data": [
    {"smiles": "O=P(O)(OCCCCCCCCOP(=O)(O)O[C@@H]1CN2CCC1CC2)O[C@@H]1CN2CCC1CC2", "note": "[Pk-023, [(3S)-1-azabicyclo[2.2.2]octan-3-yloxy]({[8-({[(3S)-1-azabicyclo[2.2.2]octan-3-yloxy](hydroxy)phosphoryl}oxy)octyl]oxy})phosphinic acid]", "values": [
      {"measurement": "IC50", "setting": "[1]", "result": 150, "unit": "nM"},
      {"measurement": "Stability of complex to shear forces (Roche CRP reactivity)", "setting": "[2]; 2.5- or 5-fold ligand excess, heparinised mouse plasma, stirred rapidly, room temperature, 3 h", "result": "stable throughout the experiment"},
      {"measurement": "Complex dissociated during dialysis against TC buffer", "setting": "[2]; 5-fold ligand excess, room temperature, after 30 h", "result": "~8", "unit": "%"},
      {"measurement": "Stability of pre-formed CRP/ligand complex (Roche CRP)", "setting": "[2]; 5-fold ligand excess, TC buffer, mouse heparinised plasma or whole mouse blood, 37° C., up to 3 hours", "result": "stable throughout the experiment"},
      {"measurement": "Roche CRP concentration recovered on addition of EDTA", "setting": "[2]; after incubation in mouse plasma/whole blood", "result": "~70 % of control values"},
      {"measurement": "Further dissociation of complex during dialysis", "setting": "[2]; at 96 h", "result": 2.5, "unit": "%"},
      {"measurement": "Stability of complexes pre-formed in serum during dialysis", "setting": "[2]; dialysis against TC buffer 24 h, room temperature, with shear forces", "result": "stable"},
      {"measurement": "Time Roche CRP value suppressed (persistence of preformed complex in circulation)", "setting": "[3]", "result": "suppressed at 15 min but was had returned to control value at 60 min"}
    ]}
  ]
}
